Values of other authors in patent US8445528B2, “Dendrimer conjugates” (priority 2008, dated 2013).

Conditions: more cytotoxic than IRINOTECAN

For `CC[C@@]1(O)C(=O)OCc2c1cc1n(c2=O)Cc2cc3cc(O)ccc3nc2-1` [SN-38, 10-hydroxycamptothecin], the “cytotoxicity relative to IRINOTECAN” value is listed as 1000 fold.
